In assay [1] the target is T1, Major capsid protein L1 (Human papillomavirus 16) (UniProt P03101).
T1 sequence (whole entry): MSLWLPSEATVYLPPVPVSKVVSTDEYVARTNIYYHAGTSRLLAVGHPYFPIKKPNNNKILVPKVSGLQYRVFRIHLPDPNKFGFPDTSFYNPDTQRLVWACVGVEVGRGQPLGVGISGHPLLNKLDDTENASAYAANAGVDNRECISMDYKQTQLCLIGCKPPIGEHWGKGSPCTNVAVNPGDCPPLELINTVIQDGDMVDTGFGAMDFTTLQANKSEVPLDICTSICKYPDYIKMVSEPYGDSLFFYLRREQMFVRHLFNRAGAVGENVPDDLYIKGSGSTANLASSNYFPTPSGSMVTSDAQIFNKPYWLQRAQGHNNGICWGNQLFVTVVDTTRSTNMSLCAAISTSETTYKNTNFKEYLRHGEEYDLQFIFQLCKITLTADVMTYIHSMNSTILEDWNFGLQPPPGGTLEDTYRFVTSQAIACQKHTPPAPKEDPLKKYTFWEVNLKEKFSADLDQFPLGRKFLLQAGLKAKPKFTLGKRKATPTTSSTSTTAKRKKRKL
In words: Binding affinity to GST-tagged HPV16 major capsid protein L1 pentamer formation at 1:100 ratio of pentamer to compound by CD spectroscopy method.

Assay [2] concerns the target T1, Major capsid protein L1 (Human papillomavirus 16). Briefly: Inhibition of GST-tagged HPV16 major capsid protein L1 pentamer formation at 1:100 ratio of pentamer to compound in presence of PPase by FPLC method.
Assay [3] shares this target. In words: Inhibition of GST-tagged HPV16 major capsid protein L1 pentamer assembly assessed as reduction in pentamer assembly at 1:50 ratio of pentamer to compound in presence of PPase by static light scattering method.
In assay [4] the target is T2, Major capsid protein L1 (human papillomavirus 18) (UniProt P06794).
T2 sequence (whole entry): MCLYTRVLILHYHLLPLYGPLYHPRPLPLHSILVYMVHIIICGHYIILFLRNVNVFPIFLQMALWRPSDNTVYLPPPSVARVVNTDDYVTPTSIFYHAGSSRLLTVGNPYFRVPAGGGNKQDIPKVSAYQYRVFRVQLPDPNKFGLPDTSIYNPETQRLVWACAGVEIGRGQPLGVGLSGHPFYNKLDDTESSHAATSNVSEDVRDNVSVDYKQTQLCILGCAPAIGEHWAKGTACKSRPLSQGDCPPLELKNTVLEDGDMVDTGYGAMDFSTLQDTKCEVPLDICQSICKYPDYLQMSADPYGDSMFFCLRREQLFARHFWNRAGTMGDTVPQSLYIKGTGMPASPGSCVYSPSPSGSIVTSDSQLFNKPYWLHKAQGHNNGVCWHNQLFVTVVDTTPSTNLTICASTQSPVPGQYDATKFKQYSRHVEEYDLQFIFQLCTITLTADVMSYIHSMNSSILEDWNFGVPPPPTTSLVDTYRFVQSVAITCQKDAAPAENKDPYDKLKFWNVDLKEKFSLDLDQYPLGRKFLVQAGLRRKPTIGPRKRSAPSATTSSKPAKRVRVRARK
In words: Inhibition of GST-tagged HPV18 major capsid protein L1 pentamer formation at 1:100 ratio of pentamer to compound in presence of PPase by FPLC method.

Assay [5] deals with T1, Major capsid protein L1 (Human papillomavirus 16). Briefly: Inhibition of GST-tagged HPV16 major capsid protein L1 pentamer assembly assessed as reduction in pentamer assembly in presence of PPase by static light scattering method.
Assay [6] shares this target. In words: (§1) Inhibition of pentamer formation of GST-tagged HPV16 major capsid protein L1 assessed as increased L1-m peak formation incubated with compound after overnight PPase-mediated digestion by size-exclusion chromatography. (Size exclusion chromatography separates by hydrodynamic size, large species first.)
For assay [7], the target named is T3, Major capsid protein L1 (Human papillomavirus 16, UniProt P03101).
T3 sequence (P03101 whole entry): T1 sequence (whole entry)
The description is as §1.

Assay [8] deals with T1, Major capsid protein L1 (Human papillomavirus 16). Briefly: Inhibition of GST-tagged HPV16 major capsid protein L1 pentamer assembly assessed as size distribution of hydrodynamic diameter of pentamer assembly in presence of PPase measured after dialysis by dynamic light scattering method and transmission electron microscopy.
The target is the same in assay [9]. In words: Binding affinity to GST-tagged HPV16 major capsid protein L1 assessed as increase in thermal stability by measuring melting temperature at 1:100 ratio of pentamer to compound by UV cloud point measurement assay.
For assay [10], the target named is T3, Major capsid protein L1. In words: Binding affinity to GST-tagged HPV16 major capsid protein L1 using CY3-labeled compound by FRET assay.
The target of assay [11] is T4, Major capsid protein L1 (human papillomavirus 58) (UniProt P26535).
T4 sequence (whole entry): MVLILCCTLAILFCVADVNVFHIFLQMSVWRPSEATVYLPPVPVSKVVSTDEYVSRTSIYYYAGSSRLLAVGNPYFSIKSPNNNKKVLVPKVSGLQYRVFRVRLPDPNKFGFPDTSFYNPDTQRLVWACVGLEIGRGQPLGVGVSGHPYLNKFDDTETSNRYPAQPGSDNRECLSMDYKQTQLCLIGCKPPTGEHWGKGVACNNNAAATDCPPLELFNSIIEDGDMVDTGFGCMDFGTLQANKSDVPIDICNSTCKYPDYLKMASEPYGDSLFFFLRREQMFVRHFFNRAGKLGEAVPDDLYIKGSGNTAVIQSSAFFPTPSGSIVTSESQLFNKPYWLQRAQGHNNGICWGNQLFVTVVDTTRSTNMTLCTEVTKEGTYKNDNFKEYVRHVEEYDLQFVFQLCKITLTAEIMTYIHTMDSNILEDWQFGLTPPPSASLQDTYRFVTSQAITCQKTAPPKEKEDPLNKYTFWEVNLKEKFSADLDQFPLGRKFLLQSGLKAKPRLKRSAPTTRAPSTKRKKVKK
In words: Inhibition of GST-tagged HPV58 major capsid protein L1 pentamer formation at 1:100 ratio of pentamer to compound in presence of PPase by FPLC method.

The target of assay [12] is T1, Major capsid protein L1 (Human papillomavirus 16). In words: Inhibition of pentamer formation of GST-tagged HPV16 major capsid protein L1 assessed as increased L1-m peak formation incubated with compound after overnight PPase-mediated digestion and measured after dialysis by dynamic light scattering method.
The target is the same in assay [13]. In words: Inhibition of GST-tagged HPV16 major capsid protein L1 pentamer assembly assessed as size distribution of hydrodynamic diameter of pentamer assembly in presence of PPase by dynamic light scattering method (reference value: 14.9 nanometer).
Assay [14] shares this target. In words: Binding affinity to GST-tagged HPV16 major capsid protein L1 by FRET assay.

The values below come from ChEMBL document CHEMBL3576862, “Peptidic inhibitors for in vitro pentamer formation of human papillomavirus capsid protein l1” (ACS Med Chem Lett, 2015).

pIC50, pKd: −log10 of the molar value. Calls of active or inactive are those of the source. The calls are words filed in the database; no cut-off is given here.

With H-DLDQFPAGRKFLLQ-OH, in assay [1], the result was inactive. Further, the inhibition entry in assay [2] was “inactive”.

Regarding `CC(C)C[C@H](NC(=O)[C@H](CC(C)C)NC(=O)[C@H](Cc1ccccc1)NC(=O)[C@H](CCCCN)NC(=O)[C@H](CCCNC(=N)N)NC(=O)CNC(=O)[C@H](CC(C)C)NC(=O)[C@@H]1CCCN1C(=O)[C@H](Cc1ccccc1)NC(=O)[C@H](CCC(N)=O)NC(=O)[C@H](CC(=O)O)NC(=O)[C@H](CO)NC(=O)[C@@H](N)CC(=O)O)C(=O)N[C@@H](CCC(N)=O)C(=O)O`, the inhibition entry in [2] was “inactive”.

For the compound H-DLDQFPLGAKFLLQ-OH, in assay [1], the result was inactive. The inhibition entry in [2] was “inactive”.

In general, pIC50 refers to the IC50 on a negative log10 scale, so that one unit is a factor of ten. In general, pKd refers to −log10 of the Kd, conventionally taken in molar units. Read a low pKd as a high Kd. Turning to `CC(C)C[C@H](NC(=O)[C@H](CC(C)C)NC(=O)[C@H](Cc1ccccc1)NC(=O)[C@H](CCCCN)NC(=O)[C@H](CCCNC(=N)N)NC(=O)CNC(=O)[C@H](CC(C)C)NC(=O)[C@@H]1CCCN1C(=O)[C@H](Cc1ccccc1)NC(=O)[C@H](CCC(N)=O)NC(=O)[C@H](CC(=O)O)NC(=O)[C@H](CC(C)C)NC(=O)[C@@H](N)CC(=O)O)C(=O)N[C@@H](CCC(N)=O)C(=O)O`, the inhibition result in assay [3] and in [11] was “Active” throughout. Besides, the inhibition entry in assay [4] is “inactive”. Besides, the inhibition result in assay [5] and in assay [6] was “Dose-dependent effect” throughout. The pIC50 on Major capsid protein L1 [7] was 7.71. Moreover, the outcome in assay [8] and in assay [12] was inactive. Further, the result in [9] was Active. On Major capsid protein L1 [10], this compound showed a pKd of 6.22. Moreover, the Activity in assay [13] was 9.4 nm.

Turning to H-DLDQFPSSSKFLLQ-OH, in [1], the result was inactive. The inhibition result in assay [2] is “inactive”.

Take H-DLDQFPLGR-OH: the inhibition result in assay [2] was “inactive”.

With H-SGFLRQLGFDKLQD-OH, in assay [6], the inhibition result was “inactive”. Besides, the result in assay [9] and in assay [14] was inactive.

Turning to H-QFPLGRKFL-OH, in assay [2], the inhibition result is “Active”.

Consider H-DLDQSPLGRKFLLQ-OH, for which the inhibition entry in assay [2] is “inactive”.

As for `CC(C)C[C@H](NC(=O)CNC(=O)[C@H](C)NC(=O)[C@H](CCC(N)=O)NC(=O)[C@H](CC(C)C)NC(=O)[C@H](CC(C)C)NC(=O)[C@H](Cc1ccccc1)NC(=O)[C@H](CCCCN)NC(=O)[C@H](CCCNC(=N)N)NC(=O)CNC(=O)[C@H](CC(C)C)NC(=O)[C@@H]1CCCN1)C(=O)N[C@@H](CCCCN)C(=O)N[C@@H](C)C(=O)N[C@@H](CCCCN)C(=O)O`, the pIC50 on Major capsid protein L1 [7] was 7.32.

On to H-PLGRKFL-OH, for which the inhibition entry in assay [2] was “inactive”.
